Data published in patent publication US11000033B2, “Ketone or oxime compound, and herbicide” (NISSAN CHEMICAL CORPORATION, priority 2014, dated 2021).

Columns and labels:
Chenopodium album = assay: Test Example 4: herbicidal effect by soil treatment (symbol O); assay type: in vivo; details: for O: Chenopodium album, herbicidal effect grade: 320 g/ha
How it was run: (§1)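 Seeds were sown in sterilized diluvial soil, covered with about 1.5 cm of soil, and the soil surface was sprayed with a water-diluted emulsion of the compound at a predetermined rate. Plants grew in a greenhouse at 25° C. to 30° C.; effects were scored visually 3 weeks after application.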

Avena fatua = assay: Test Example 4: herbicidal effect by soil treatment (symbol I); assay type: in vivo
How it was run: as §1

Lolium multiflorum Lam. = assay: Test Example 5: herbicidal effect by foliage application, plastic box (symbol K); assay type: in vivo; details: 3 weeks after application
How it was run: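 Herbicide, formulated as an emulsion and diluted in water, is sprayed onto the aerial parts of 14-day seedlings. These were grown at 25° C. to 30° C. in sterilized diluvial soil; effects are graded after 3 weeks.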

Monochoria vaginalis [1] = assay: Test Example 2: herbicidal activity, application during weed generation in submerged conditions (symbol C); assay type: in vivo; details: Table 23, grade 0-5 by criteria of Test Example 1
How it was run: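 Flooded-soil post-emergence test: emulsion of compound, water-diluted to target rate, applied to paddy water surface at 1–2 leaf stage of mixed-sown weeds (alluvial soil, 4 cm water, 25–30° C. greenhouse); visual rating 3 weeks after application.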

corn = assay: Test Example 5: effect on crop by foliage application, plastic box (symbol c); assay type: in vivo; details: 3 weeks after application
How it was run: (§2)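 Diluvial soil, sterilized and boxed (21 × 13 × 7 cm), received spot-sown seed covered by about 1.5 cm soil; plants were then greenhouse-grown at 25–30° C.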

Abutilon theophrasti = assay: Test Example 4: herbicidal effect by soil treatment (symbol M); assay type: in vivo
How it was run: as §1

soybean = assay: Test Example 5: effect on crop by foliage application, plastic box (symbol d); assay type: in vivo; details: 3 weeks after application
How it was run: as §2

rapeseed = assay: Test Example 5: effect on crop by foliage application, plastic box (symbol g); assay type: in vivo; details: 3 weeks after application
How it was run: as §2

Monochoria vaginalis [2] = assay: Test Example 1: herbicidal activity, application before weed generation in submerged conditions (symbol C); assay type: in vivo
How it was run: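 Steps: alluvial soil flooded to 4 cm; weed seeds sown together; rice seedlings (2.5 leaf) transplanted; diluted emulsion applied to water surface the same day as sowing; plants grown at 25–30 °C in greenhouse; herbicidal effect rated on a 0–5 scale at 3 weeks.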

Leptochloa chinensis = assay: Test Example 3: herbicidal effect by foliage application, Wagner pot (symbol D); assay type: in vivo
How it was run: (§3)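 Rating at 3 weeks post-spray, by defined criteria. Treatment: emulsion diluted with water to a predetermined amount, applied evenly to foliage of 14-day-old plants raised in alluvial soil flooded 0.1–0.5 cm deep at 25–30 °C, rice co-sown.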

[3] = system: Echinochloa crus-galli var. crus-galli; assay: Test Example 3: herbicidal effect by foliage application, Wagner pot (symbol H); assay type: in vivo
How it was run: as §3

[4] = application herbicide amount 320 g/ha
[5] = application herbicide amount 102 g/ha
[6] = application herbicide amount 320 g/ha, Table 24

SMILES | O: Chenopodium album, herbicidal effect grade (Chenopodium album) | I: Avena fatua, herbicidal effect grade (Avena fatua; 320 g/ha) | K: Lolium multiflorum Lam., herbicidal effect (criteria 0-5) (Lolium multiflorum Lam.; 320 g/ha) | Herbicidal effect grade, C: Monochoria vaginalis (Monochoria vaginalis [1]; [4]) | c: corn, effect on crop (criteria 0-5) (corn; 320 g/ha) | M: Abutilon theophrasti, herbicidal effect grade (Abutilon theophrasti; 320 g/ha) | melting point [°C] | d: soybean, effect on crop (criteria 0-5) (soybean; 320 g/ha) | g: rapeseed, effect on crop (criteria 0-5) (rapeseed; 320 g/ha) | Herbicidal effect grade, C: Monochoria vaginalis (Monochoria vaginalis [2]; [4]) | herbicidal effect on D (Leptochloa chinensis), grade 0-5 (Leptochloa chinensis; [4]) | herbicidal effect on H (Echinochloa crus-galli var. crus-galli), grade 0-5 [3, 4] | other results
CON=C(CC1CC(O)=C(c2c(C)cc(C)cc2C)C1=O)C(F)(F)F (centres unmarked) [1-097] | 3 (Herbicidal ratio of 40% or higher and lower than 70%) | 1 (Herbicidal ratio of 5% or higher and lower than 20%) | 5 (Herbicidal ratio of 90% or more (almost completely withered)) | 0 (Herbicidal ratio of 5% or lower (almost no effect)) | 5 (Herbicidal ratio of 90% or more (almost completely withered)) | 0 (Herbicidal ratio of 5% or lower (almost no effect)) | 115 to 118 | 3 (Herbicidal ratio of 40% or higher and lower than 70%) | 3 (Herbicidal ratio of 40% or higher and lower than 70%) | 0 (Herbicidal ratio of 5% or lower (almost no effect)) |  |  | 
CCCON=C(C)CC1CC(O)=C(c2c(C)cc(C)cc2C)C1=O (centres unmarked) [1-123] | 0 (Herbicidal ratio of 5% or lower (almost no effect)) | 4 (Herbicidal ratio of 70% or higher and lower than 90%) | 5 (Herbicidal ratio of 90% or more (almost completely withered)) | 2 (Herbicidal ratio of 20% or higher and lower than 40%) | 5 (Herbicidal ratio of 90% or more (almost completely withered)) | 3 (Herbicidal ratio of 40% or higher and lower than 70%) | 123 to 126 | 2 (Herbicidal ratio of 20% or higher and lower than 40%) | 5 (Herbicidal ratio of 90% or more (almost completely withered)) | 3 (Herbicidal ratio of 40% or higher and lower than 70%) | 5 (Herbicidal ratio of 90% or more (almost completely withered)) | 5 (Herbicidal ratio of 90% or more (almost completely withered)) | 
Cc1cc(C)c(C2=C(O)CC(CC(=NOCC(F)(F)F)C3CC3)C2=O)c(C)c1 (centres unmarked) [1-131] | 0 (Herbicidal ratio of 5% or lower (almost no effect)) | 3 (Herbicidal ratio of 40% or higher and lower than 70%) | 5 (Herbicidal ratio of 90% or more (almost completely withered)) | 0 (Herbicidal ratio of 5% or lower (almost no effect)) | 3 (Herbicidal ratio of 40% or higher and lower than 70%) | 0 (Herbicidal ratio of 5% or lower (almost no effect)) | 137 to 138 | 0 (Herbicidal ratio of 5% or lower (almost no effect)) | 5 (Herbicidal ratio of 90% or more (almost completely withered)) | 1 (Herbicidal ratio of 5% or higher and lower than 20%) | 5 (Herbicidal ratio of 90% or more (almost completely withered)) | 5 (Herbicidal ratio of 90% or more (almost completely withered)) | 
CC(=O)CC1CC(O)=C(c2c(C)cc(C)cc2C)C1=O (centres unmarked) [2-001, 3-hydroxy-2-mesityl-5-(2-oxopropyl)cyclopent-2-enone] |  |  |  |  |  |  | 183 to 185 |  |  |  |  |  | I: Avena fatua, herbicidal effect grade (Avena fatua; 102 g/ha): 0 (Herbicidal ratio of 5% or lower (almost no effect)); K: Lolium multiflorum Lam., herbicidal effect grade (Lolium multiflorum Lam.; 102 g/ha): 5 (Herbicidal ratio of 90% or more (almost completely withered)); Herbicidal effect grade, C: Monochoria vaginalis (Monochoria vaginalis [1]; [5]): 0 (Herbicidal ratio of 5% or lower (almost no effect)); herbicidal effect on D (Leptochloa chinensis), grade 0-5 (Leptochloa chinensis; [5]): 5 (Herbicidal ratio of 90% or more (almost completely withered)); c: corn, effect on crop grade (corn; 102 g/ha): 3 (Herbicidal ratio of 40% or higher and lower than 70%); M: Abutilon theophrasti, herbicidal effect grade (Abutilon theophrasti; 102 g/ha): 3 (Herbicidal ratio of 40% or higher and lower than 70%); d: soybean, effect on crop grade (soybean; 102 g/ha): 0 (Herbicidal ratio of 5% or lower (almost no effect)); g: rapeseed, effect on crop grade (rapeseed; 102 g/ha): 4 (Herbicidal ratio of 70% or higher and lower than 90%); Herbicidal effect grade, C: Monochoria vaginalis (Monochoria vaginalis [2]; [5]): 0 (Herbicidal ratio of 5% or lower (almost no effect)); herbicidal effect on H (Echinochloa crus-galli var. crus-galli), grade 0-5 [3, 5]: 5 (Herbicidal ratio of 90% or more (almost completely withered))
CC(CC1CC(O)=C(c2c(C)cc(-c3ccc(Cl)cc3)cc2C)C1=O)=NOCC(F)(F)F (centres unmarked) [9-024] |  |  |  | 1 (Herbicidal ratio of 5% or higher and lower than 20%) |  |  |  |  |  |  |  |  | Herbicidal effect grade, O: Chenopodium album (Chenopodium album; [4]): 0 (Herbicidal ratio of 5% or lower (almost no effect)); Herbicidal effect grade, I: Avena fatua (Avena fatua; [4]): 3 (Herbicidal ratio of 40% or higher and lower than 70%); K: Lolium multiflorum Lam., herbicidal effect grade (Lolium multiflorum Lam.; 320 g/ha): 5 (Herbicidal ratio of 90% or more (almost completely withered)); D (Leptochloa chinensis) herbicidal effect grade (Leptochloa chinensis; [6]): 5 (Herbicidal ratio of 90% or more (almost completely withered)); c: corn, effect on crop grade (corn; 320 g/ha): 5 (Herbicidal ratio of 90% or more (almost completely withered)); Herbicidal effect grade, M: Abutilon theophrasti (Abutilon theophrasti; [4]): 0 (Herbicidal ratio of 5% or lower (almost no effect)); d: soybean, effect on crop grade (soybean; 320 g/ha): 0 (Herbicidal ratio of 5% or lower (almost no effect)); g: rapeseed, effect on crop grade (rapeseed; 320 g/ha): 4 (Herbicidal ratio of 70% or higher and lower than 90%); C (Monochoria vaginalis) herbicidal effect grade (Monochoria vaginalis [2]; [4]): 2 (Herbicidal ratio of 20% or higher and lower than 40%); H (Echinochloa crus-galli var. crus-galli) herbicidal effect grade [3, 6]: 5 (Herbicidal ratio of 90% or more (almost completely withered))
